Read-outs that look alike come from different tables or passages of the source.

Data set [1] in a line: log P by HPLC on reversed-phase columns (EEC Directive 79/831 Annex V.A8). The class given is physicochemical.
Data set [2] relates to caterpillars of the armyworm (Spodoptera frugiperda). Nature of the data set: Spodoptera frugiperda test (SPODFR spray treatment). The class given is in vivo. As to conditions: Spodoptera frugiperda, 168 h, read-out: activity in % (caterpillars killed).
Data set [3] relates to larvae of the mustard beetle (Phaedon cochleariae). Nature of the data set: Phaedon test (PHAECO spray treatment). As to conditions: Phaedon cochleariae, 168 h, read-out: activity in % (beetle larvae killed).
Where [4] appears, read: reversed-phase C18 HPLC column, pH 2.7, HPLC reversed-phase C18, acidic range pH 2.7 (HCOOH), only or first value of the cell, read-out: log P.
[5] abbreviates: application rate 100 g/ha, after 7 days.

`Cc1cc(Cl)cc(C(=O)NCc2cccc(F)c2)c1NC(=O)c1cc(Cn2nnc(C(F)(F)F)n2)nn1-c1ncccc1Cl` [Example 98] displayed a chromatographic logP in data set [1] (pH 2.7, log P) of 3.79. Further, the pest or weed control at 100 g/ha in data set [2] and in data set [3] was 100% throughout.

Regarding `Cc1cc(F)cc(C(=O)NCc2ccccc2OC(F)(F)F)c1NC(=O)c1cc(Cn2nnc(C(F)(F)F)n2)nn1-c1ncccc1Cl` [Example 154], the chromatographic logP in data set [1] (setting [4]) stood at 3.92. Further, the pest or weed control at 100 g/ha in data set [2] (setting [5]) and in data set [3] was 100% throughout.

As for `Cc1cc(Cl)cc(C(=O)NC2COC2)c1NC(=O)c1cc(Cn2nnc(C(F)(F)C(F)(F)F)n2)nn1-c1ncccc1Cl` [Example 9], in data set [1] (pH 2.7, log P), the chromatographic logP was found to be 3.21. Moreover, the pest or weed control at 100 g/ha in data set [2] and in data set [3] was 100% each time.

`Cc1cc(Cl)cc(C(=O)NC(C)c2ccccc2)c1NC(=O)c1cc(Cn2nnc(C(F)(F)F)n2)nn1-c1ncccc1Cl` (stereo not shown) [Example 84]: in data set [1] (pH 2.7, log P), the chromatographic logP came to 3.92. The pest or weed control at 100 g/ha in data set [2] and in data set [3] was 100% each time.

Turning to `Cc1cc(C#N)cc(C(=O)NCc2cccc(OC(F)(F)F)c2)c1NC(=O)c1cc(Cn2nnc(C(F)(F)F)n2)nn1-c1ncccc1Cl` [Example 166], the chromatographic logP in data set [1] (setting [4]) was determined as 3.91. Further, the pest or weed control at 100 g/ha in data set [2] (setting [5]) and in data set [3] was 100% in each case.

As for `COc1ccccc1CNC(=O)c1cc(Cl)cc(C)c1NC(=O)c1cc(Cn2nnc(C(F)(F)F)n2)nn1-c1ncccc1Cl` [Example 100], the chromatographic logP in data set [1] (pH 2.7, log P) is 3.94. The pest or weed control at 100 g/ha in data set [2] and in data set [3] was 100% throughout.

Consider `Cc1cc(C#N)cc(C(=O)NCc2ccccc2OC(F)F)c1NC(=O)c1cc(Cn2nnc(C(F)(F)F)n2)nn1-c1c(Cl)cccc1Cl` [Example 189], for which the chromatographic logP in data set [1] (setting [4]) was 3.75. In addition, the pest or weed control at 100 g/ha in data set [2] (setting [5]) and in data set [3] was 100% in each case.

With `Cc1cc(Cl)cc(C(=O)NCc2cccc(OC(F)(F)F)c2)c1NC(=O)c1cc(Cn2nnc(C(F)F)n2)nn1-c1ncccc1Cl` [Example 160], in data set [1] (setting [4]), the chromatographic logP is 3.79. Further, the pest or weed control at 100 g/ha in data set [2] (setting [5]) and in data set [3] was 100% in each case.

With `Cc1cc(C#N)cc(C(=O)NCc2ccccc2)c1NC(=O)c1cc(Cn2nnnc2CCC(F)(F)F)nn1-c1ncccc1Cl` [Example 132], the chromatographic logP in data set [1] (setting [4]) is 2.84.

In data set [1] (pH 2.7, log P), `Cc1cc(I)cc(C(=O)NCc2ccccc2)c1NC(=O)c1cc(Cn2nnc(CCC(F)(F)F)n2)nn1-c1ncccc1Cl` [Example 80] registered a chromatographic logP of 3.78.

In the case of `Cc1cc(I)cc(C(=O)NCc2ccccc2)c1NC(=O)c1cc(Cn2nc(C(F)(F)F)c(C(F)(F)F)n2)nn1-c1ncccc1Cl` [Example 135], in data set [1] (setting [4]), the chromatographic logP was 4.75.

Take `Cc1ccc(Cl)c(C(=O)NCc2ccc(OC(F)(F)F)cc2)c1NC(=O)c1cc(Cn2nnc(C(F)(F)F)n2)nn1-c1ncccc1Cl` [Example 201]: the chromatographic logP in data set [1] (setting [4]) was 3.93.

With `O=C(NCc1ccccc1OC(F)(F)F)c1cc2ccccc2c(Cl)c1NC(=O)c1cc(Cn2nnc(C(F)(F)F)n2)nn1-c1ncccc1Cl` [Example 221], the chromatographic logP in data set [1] (setting [4]) is 4.36. Moreover, the pest or weed control at 100 g/ha in data set [2] (setting [5]) came to 100%.

Turning to `Cc1cc(Cl)cc(C(=O)NCc2ccccc2)c1NC(=O)c1cc(Cn2nnnc2CCC(F)(F)F)nn1-c1ncccc1Cl` [Example 131], the chromatographic logP in data set [1] (pH 2.7, log P) is 3.2.

For `O=C(NCc1ccccc1Cl)c1cc2ccccc2c(Cl)c1NC(=O)c1cc(Cn2nnc(C(F)(F)F)n2)nn1-c1ncccc1Cl` [Example 218], the chromatographic logP in data set [1] (setting [4]) was found to be 4.1.

In the case of `Cc1cc(Cl)cc(C(=O)NCc2ccccc2)c1NC(=O)c1cc(Cn2nnc(CCC(F)(F)F)n2)nn1-c1ncccc1Cl` [Example 79], the chromatographic logP in data set [1] (pH 2.7, log P) amounted to 3.56.

Compound `Cc1cc(Cl)cc(C(=O)NCC2CCCO2)c1NC(=O)c1cc(Cn2nnc(C(F)(F)F)n2)nn1-c1ncccc1Cl` (stereo not shown) [Example 60] yielded a chromatographic logP in data set [1] (pH 2.7, log P) of 3.25. The pest or weed control at 100 g/ha in data set [2] came out at 100%.

With `Cc1cc(C#N)cc(C(=O)NC2CS(=O)(=O)CC2O)c1NC(=O)c1cc(Cn2nnc(C(F)(F)F)n2)nn1-c1ccccc1Cl` (stereo not shown) [Example 53], the chromatographic logP in data set [1] (setting [4]) was found to be 2.64.

Consider `Cc1cc(Cl)cc(C(=O)NC(C)c2cc(Cl)cc(Cl)c2)c1NC(=O)c1cc(Cn2nnc(C(F)(F)F)n2)nn1-c1ncccc1Cl` (stereo not shown) [Example 145], for which, in data set [1] (setting [4]), the chromatographic logP amounted to 4.66.

Consider `Cc1ccc(CNC(=O)c2cc(Cl)cc(C)c2NC(=O)c2cc(Cn3nnc(C(F)(F)F)n3)nn2-c2ncccc2Cl)nc1C` [Example 227], for which the chromatographic logP in data set [1] (pH 2.7, log P) stood at 2.1. Further, the pest or weed control at 100 g/ha in data set [2] came out at 100%.

`Cc1cc(Cl)cc(C(=O)NC2CCN(C)CC2)c1NC(=O)c1cc(Cn2nnc(C(F)(F)F)n2)nn1-c1ncccc1Cl` [Example 55] showed a chromatographic logP in data set [1] (pH 2.7, log P) of 4.14. Besides, the pest or weed control at 100 g/ha in data set [2] is 100%.

In the case of `Cc1ccc(Cl)c(C(=O)NCc2cccc(OC(F)(F)F)c2)c1NC(=O)c1cc(Cn2nnc(C(F)(F)F)n2)nn1-c1ncccc1Cl` [Example 200], in data set [1] (setting [4]), the chromatographic logP was found to be 3.94.

Take `Cc1cc(C#N)cc(C(=O)NCc2ccccc2OC(F)(F)F)c1NC(=O)c1cc(Cn2nnc(C(F)F)n2)nn1-c1ncccc1Cl` [Example 162]: in data set [1] (setting [4]), the chromatographic logP was found to be 3.37. The pest or weed control at 100 g/ha in data set [3] came out at 100%.

Turning to `Cc1cc(I)cc(C(=O)NCc2cccc(OC(F)(F)F)c2)c1NC(=O)c1cc(Cn2nnc(C(F)(F)C(F)(F)F)n2)nn1-c1ncccc1Cl` [Example 147], the chromatographic logP in data set [1] (setting [4]) amounted to 4.36. Also, the pest or weed control at 100 g/ha in data set [3] is 100%.

In the case of `O=C(NCc1ccc(OC(F)(F)F)cc1)c1cc2ccccc2c(Cl)c1NC(=O)c1cc(Cn2nnc(C(F)(F)F)n2)nn1-c1ncccc1Cl` [Example 223], the chromatographic logP in data set [1] (setting [4]) is 4.36. In addition, the pest or weed control at 100 g/ha in data set [2] (setting [5]) was found to be 100%.

For the compound `O=C(NCc1cccc(Cl)c1)c1cc2ccccc2c(Cl)c1NC(=O)c1cc(Cn2nnc(C(F)(F)F)n2)nn1-c1ncccc1Cl` [Example 219], the chromatographic logP in data set [1] (setting [4]) is 4.13.

In data set [1] (pH 2.7, log P), `Cc1cc(Cl)cc(C(=O)NC2COC2)c1NC(=O)c1cc(Cn2nnc(C(F)F)n2)nn1-c1ncccc1Cl` [Example 16] showed a chromatographic logP of 2.37. Also, the pest or weed control at 100 g/ha in data set [2] was determined as 100%.

Compound `O=C(NC1COC1)c1cc(Cl)cc(Cl)c1NC(=O)c1cc(Cn2nnc(C(F)F)n2)nn1-c1ncccc1Cl` [Example 19] yielded a chromatographic logP in data set [1] (pH 2.7, log P) of 2.37. Moreover, the pest or weed control at 100 g/ha in data set [2] was determined as 100%.

With `Cc1cc(I)cc(C(=O)NCc2ccccc2)c1NC(=O)c1cc(Cn2nnnc2CCC(F)(F)F)nn1-c1ncccc1Cl` [Example 133], in data set [1] (pH 2.7, log P), the chromatographic logP amounted to 3.45.

For `Cc1cc(C#N)cc(C(=O)NCc2ccccc2OC(F)F)c1NC(=O)c1cc(Cn2nnc(C(F)F)n2)nn1-c1ncccc1Cl` [Example 177], the chromatographic logP in data set [1] (setting [4]) is 3.07.

As for `Cc1ccc(CNC(=O)c2cc(C#N)cc(C)c2NC(=O)c2cc(Cn3nnc(C(F)(F)F)n3)nn2-c2ccccc2Cl)cc1` [Example 78], in data set [1] (setting [4]), the chromatographic logP amounted to 3.74. Besides, the pest or weed control at 100 g/ha in data set [2] (setting [5]) came to 100%.

As to `Cc1cc(C#N)cc(C(=O)NC2CCN(C)CC2)c1NC(=O)c1cc(Cn2nnc(C(F)(F)F)n2)nn1-c1ccccc1Cl` [Example 59], in data set [1] (setting [4]), the chromatographic logP was determined as 1.79.

The compound `Cc1ccc(Cl)c(C(=O)NCc2ccc(Cl)cc2)c1NC(=O)c1cc(Cn2nnc(C(F)(F)F)n2)nn1-c1ncccc1Cl` [Example 198] returned a chromatographic logP in data set [1] (pH 2.7, log P) of 3.68.

In the case of `CCCc1cccc(CNC(=O)c2cc(Cl)cc(C)c2NC(=O)c2cc(Cn3nnc(C(F)(F)F)n3)nn2-c2ncccc2Cl)n1` [Example 229], in data set [1] (setting [4]), the chromatographic logP turned out to be 2.94. For the same compound, in data set [3], the pest or weed control at 100 g/ha was 100%.

Turning to `Cc1cc(C#N)cc(C(=O)NC2COC2)c1NC(=O)c1cc(Cn2nnc(C(F)F)n2)nn1-c1ncccc1Cl` [Example 17], the chromatographic logP in data set [1] (pH 2.7, log P) is 2.05. In data set [2], the pest or weed control at 100 g/ha amounted to 83%.

Turning to `Cc1cc(Cl)cc(C(=O)NCc2cccc(OC(F)F)c2)c1NC(=O)c1cc(Cn2nnc(C(F)F)n2)nn1-c1ncccc1Cl` [Example 176], the chromatographic logP in data set [1] (setting [4]) stood at 3.42.

With `Cc1cc(Cl)cc(C(=O)NCc2cc3ccccc3nc2Cl)c1NC(=O)c1cc(Cn2nnc(C(F)(F)F)n2)nn1-c1ncccc1Cl` [Example 237], the chromatographic logP in data set [1] (setting [4]) came to 3.94.

Regarding `Cc1cc(C#N)cc(C(=O)NCc2ccccc2)c1NC(=O)c1cc(Cn2nnc(CCC(F)(F)F)n2)nn1-c1ncccc1Cl` [Example 130], the chromatographic logP in data set [1] (setting [4]) is 3.21. Moreover, in data set [3], the pest or weed control at 100 g/ha turned out to be 100%.

In the case of `O=C(NCc1ccc(Cl)cc1)c1cc2ccccc2c(Cl)c1NC(=O)c1cc(Cn2nnc(C(F)(F)F)n2)nn1-c1ncccc1Cl` [Example 220], the chromatographic logP in data set [1] (setting [4]) was 4.11.

Compound `Cc1ccc(CNC(=O)c2cc(Cl)cc(C)c2NC(=O)c2cc(Cn3nnc(C(F)(F)F)n3)nn2-c2ncccc2Cl)cc1` [Example 90] showed a chromatographic logP in data set [1] (pH 2.7, log P) of 4.08. In addition, the pest or weed control at 100 g/ha in data set [2] was 100%.

Consider `Cc1cc(C#N)cc(C(=O)NCc2ccccc2OC(F)F)c1NC(=O)c1cc(Cn2nnc(C(F)(F)F)n2)nn1-c1ncccc1Cl` [Example 179], for which the chromatographic logP in data set [1] (setting [4]) is 3.55.

On to `Cc1ccc(Cl)c(C(=O)NCc2ccccc2OC(F)(F)F)c1NC(=O)c1cc(Cn2nnc(C(F)(F)F)n2)nn1-c1ncccc1Cl` [Example 199], for which the chromatographic logP in data set [1] (setting [4]) turned out to be 3.92.

As for `Cc1cc(C#N)cc(C(=O)NCc2ccc(OC(F)(F)F)cc2)c1NC(=O)c1cc(Cn2nnc(C(F)(F)F)n2)nn1-c1c(Cl)cccc1Cl` [Example 181], in data set [1] (setting [4]), the chromatographic logP was 4.46. Moreover, in data set [2] (setting [5]), the pest or weed control at 100 g/ha was determined as 100%.

On to `O=C(NCc1cccc(OC(F)(F)F)c1)c1cc2ccccc2c(Cl)c1NC(=O)c1cc(Cn2nnc(C(F)(F)F)n2)nn1-c1ncccc1Cl` [Example 222], for which, in data set [1] (setting [4]), the chromatographic logP came out at 4.38. For the same compound, the pest or weed control at 100 g/ha in data set [2] (setting [5]) amounted to 100%.

The values above are taken from patent US8791143B2, “Anthranilic diamide derivatives having cyclic side-chains” (priority 2010, dated 2014).
